# US9034922B2, “Composition for maintaining function of platelets” (THE UNIVERSITY OF TOKYO, priority 2010, dated 2015)
# Experiments:
# [1] = tested on: ES cell-derived platelets (ADAM17-mediated GPIbα shedding); assay: Function-maintaining effect on ES cell-derived platelets in culture system (flow cytometry CD41/CD42b, platelet count)
# Experimental: As human ES cells (hES cells), a KhES cell line (KhES-3) established by and provided from Institute for Frontier Medical Sciences, Kyoto University was used.
# The human ES cells or the human iPS cells were seeded on the feeder cells such that the cell count was 5×10^4 to 1×10^5/10-cm dish. The cells were cultured in Iscove's Modified Dulbecco's Medium (IMDM, manufactured by Invitrogen Corp/GIBCO) supplemented with 15% FBS (product name: CELLect™ GOLD, manufactured by ICN Biomedicals Inc.), 2 mM L-glut amine (manufactured by Invitrogen Corp.), ITS supplement (10 μg/ml insulin, 5.5 mg/ml human transferrin, 5 ng/ml sodium selenite) (manufactured by Sigma-Aldrich Co.), 50 μg/ml ascorbic acid (Sigma-Aldrich Co.), 0.45 mM α-monothioglycerol (MTG, manufactured by Sigma-Aldrich Co.), and 20 ng/ml vascular endothelial growth factor (VEGF, manufactured by R&D Systems, Inc.). Further, this culturing was carried out at 37° C. in 5% CO2 and 21% O2 (atmospheric oxygen) using a CO2 incubator (product name: HERA CELL 150i, manufactured by Thermo Fisher Scientific K. K.). Then, the medium was replaced every 3 days, and the culturing was continued under the conditions until Day 15 when a large number of sac structures (sac-like structures) containing hematopoietic progenitor cells therein were observed.
# Next, after detached from the dish, the sac structures were disrupted and suspended in a 3% FBS-containing phosphate buffer solution (PBS). Then, the suspension was passed through a 40-μm cell strainer (manufactured by BD). The solution thus passed through was centrifuged at 440×g for 10 minutes to collect hematopoietic progenitor cells, and the cells was counted. The hematopoietic progenitor cells were seeded on 10T1/2 cells newly prepared in a 6-well plate (6×10^5 cells/plate) exposed to 50-Gy radiation such that the number of the hematopoietic progenitor cells was 2 to 3×10^4/well. The hematopoietic progenitor cells were further cultured for 8 days in IMDM (manufactured by Invitrogen Corp/GIBCO) supplemented with 15% FBS (product name: CELLect™ GOLD, manufactured by ICN Biomedicals Inc.), 2 mM L-glutamine (manufactured by Invitrogen Corp.), ITS supplement (10 μg/ml insulin, 5.5 mg/ml transferrin, 5 ng/ml sodium selenite) (manufactured by Sigma-Aldrich Co.), 50 μg/ml ascorbic acid (manufactured by Sigma-Aldrich Co.), 0.45 mM MTG (manufactured by Sigma-Aldrich Co.), 100 ng/ml human thrombopoietin (human TPO, manufactured by PeproTech, Inc.), 50 ng/ml human stem cell factor (SCF, manufactured by PeproTech, Inc.), and 25 U/ml heparin. Thereby, megakaryocytes/platelets were induced.
# Subsequently, the induced megakaryocytes/platelets were collected with an anticoagulant solution (Acid Citrate Dextrose, ACD), followed by centrifugation at 900 rpm for 10 minutes without a break. The supernatant obtained by the centrifugation was further centrifuged at 1500 rpm for 10 minutes without a break to remove the supernatant. Thereafter, the numbers of megakaryocytes and platelets in the precipitate thus obtained were analyzed by flow cytometry using antibodies for staining.
# Note that, in the flow cytometry, FACS Aria manufactured by Becton, Dickinson and Company was used. As the antibodies used to stain the megakaryocytes and the platelets, used were a Phycoerythrin (PE)-modified anti-human CD42a (GPIX) antibody, a PE-modified anti-human CD42b (GPIbα) antibody, and an allophycocyanin (APC)-labelled anti-CD41a (integrin αIIbbeta3 complex, HIP8 clone) antibody (manufactured by BD Bioscience). Additionally, in order to accurately measure the absolute numbers of the megakaryocytes and the platelets, the cells were stained with these antibodies, and the analysis was conducted by flow cytometry using TruCount beads (manufactured by BD Bioscience), also.
# [2] = target: T1, Matrix metalloproteinase 13 (MMP-13) (Homo sapiens, UniProt P45452); assay: Enzyme inhibition experiment, MMP-13; format: biochemical; details: 444221 substrate, 37° C., 4 hours
# T1 construct: purchased Chemicon CC068
# Experimental: Matrix metalloproteinase 13 (MMP-13) (manufactured by Chemicon, product number: CC068)
# (§1) The enzyme reaction was carried out using the enzymes and substrates. Specifically, if necessary, the enzyme was activated in advance with APMA (final concentration 1 mmol/L, p-aminophenylmercuric acetate, manufactured by Sigma-Aldrich Co., A9563) according to information from the manufacturer. Then, in a 96-well plate for fluorescence measurement, 90 μL of an enzyme solution prepared with Assay Buffer A (50 mmol/L Tris-HCl buffer (pH 7.5) containing 200 mmol/L sodium chloride, 5 mmol/L calcium chloride, 10 μmol/L zinc sulfate, and 2 mg/mL bovine serum albumin) was mixed with 90 μL of the substrate adjusted to be 20 μmol/L with Assay Buffer B (50 mmol/L Tris-HCl buffer (pH 7.5) containing 200 mmol/L sodium chloride, 5 mmol/L calcium chloride, 10 μmol/L zinc sulfate, and 0.05% PLURONIC F-68), and incubated for reaction at 25° C. or 37° C. for several hours. Moreover, the fluorescence intensities before and after the reaction were measured using a fluorometer to determine the enzyme activity.
# ADAM17 = target: T2, ADAM17 (Homo sapiens, UniProt P78536); assay: ADAM17 inhibition experiment (fluorescent synthetic substrate); format: biochemical
# T2 construct: made in house; host or cells: mammalian cells or insect cells
# T2 sequence (P78536 215-824): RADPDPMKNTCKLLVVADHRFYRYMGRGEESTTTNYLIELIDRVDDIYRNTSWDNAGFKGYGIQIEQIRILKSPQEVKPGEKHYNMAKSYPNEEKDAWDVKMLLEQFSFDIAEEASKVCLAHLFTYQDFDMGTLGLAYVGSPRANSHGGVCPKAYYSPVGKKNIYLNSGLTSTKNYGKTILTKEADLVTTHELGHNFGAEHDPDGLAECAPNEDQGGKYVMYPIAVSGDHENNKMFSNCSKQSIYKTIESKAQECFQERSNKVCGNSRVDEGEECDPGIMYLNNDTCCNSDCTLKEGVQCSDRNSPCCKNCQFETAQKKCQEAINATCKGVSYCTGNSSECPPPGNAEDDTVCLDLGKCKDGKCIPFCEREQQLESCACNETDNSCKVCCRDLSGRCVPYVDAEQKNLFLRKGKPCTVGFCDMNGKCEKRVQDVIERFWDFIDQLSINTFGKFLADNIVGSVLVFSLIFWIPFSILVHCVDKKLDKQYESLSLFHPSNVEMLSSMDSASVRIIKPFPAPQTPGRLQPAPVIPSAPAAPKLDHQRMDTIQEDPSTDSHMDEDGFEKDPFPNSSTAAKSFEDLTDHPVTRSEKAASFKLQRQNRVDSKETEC
# Experimental: The cDNA was incorporated into an expression vector. Then, this vector was transfected into mammalian cells or insect cells, and ADAM17 was expressed and obtained.
# Next, the activity of ADAM17 was measured, as follows in the presence or absence of the test substances, in which obtained ADAM17 was used as an enzyme, and a fluorescent synthetic substrate Nma (N-methyl anthranilate)-[…]Dnp (dinitrophenyl)-D-Arg-NH2 containing an ADAM17-cleavage sequence of membrane-bound TNF was used as a substrate.
# Specifically, 90 μL of 14 units of an enzyme solution (1 unit is defined as an amount of enzyme degrading […] of the substrate in 1 minute at 25° C.) prepared with Assay Buffer A (50 mmol/L Tris-HCl buffer (pH 7.5) containing 200 mmol/L sodium chloride, 5 mmol/L calcium chloride, 10 μmol/L zinc sulfate, and 2 mg/mL bovine serum albumin) was mixed with 90 μL of the fluorescent synthetic substrate adjusted to be 20 μmol/L with Assay Buffer B (50 mmol/L Tris-HCl buffer (pH 7.5) containing 200 mmol/L sodium chloride, 5 mmol/L calcium chloride, 10 μmol/L zinc sulfate, and 0.05% PLURONIC F-68), and allowed for reaction at 37° C. for 1.5 hours. Thereafter, the enzyme activity was determined by measurement using a fluorometer (Fluoroskan Ascent) under conditions of an excitation wavelength of 355 nm and a measurement wavelength of 460 nm. Then, an inhibition rate was obtained based on the enzyme activities in the presence and absence of the test compounds, and the 50% inhibitory concentration (IC50) was calculated.
# A disintegrin and metalloproteinase 17 (ADAM17, TACE) (used was one prepared at Kaken Pharmaceutical Co., Ltd. by employing the genetic recombination in the same way as in Test Example 3. Note that, the same as in Test Example 3, 1 unit is defined as an amount of enzyme degrading 1 pmol of substrate in 1 minute at 25° C.)
# (§2) TACE substrate (the same as one used in Test Example 3): excitation wavelength at 355 nm, emission wavelength at 460 nm
# as §1, with “activity. An inhibition rate was obtained based on the enzyme activities in the presence and absence of the test substances, and the 50% inhibitory concentration (IC50) was calculated.” for “activity.”
# [3] = target: T3, Matrix metalloproteinase 17 (MMP-17) (Homo sapiens, UniProt Q9ULZ9); assay: Enzyme inhibition experiment, MMP-17; format: biochemical; details: 3163 substrate, 25° C., 5 hours
# T3 construct: purchased Calbiochem 475940
# T3 sequence (Q9ULZ9 126-298 limits assumed): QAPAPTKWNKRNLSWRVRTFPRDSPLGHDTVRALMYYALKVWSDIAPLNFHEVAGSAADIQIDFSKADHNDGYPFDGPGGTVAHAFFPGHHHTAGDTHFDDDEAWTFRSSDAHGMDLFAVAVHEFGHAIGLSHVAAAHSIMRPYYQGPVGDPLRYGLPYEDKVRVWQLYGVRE
# Experimental: Matrix metalloproteinase 17 (MMP-17) (manufactured by Calbiochem, product number: 475940)
# (§3) 3168 substrate (MOCAc-Arg-Pro-Lys-Pro-Val-Glu-Nva-Trp-Arg-Lys(Dnp)-NH2, manufactured by Peptide Institute, Inc.): excitation wavelength at 320 nm, emission wavelength at 405 nm, and 3163 substrate (MOCAc-Pro-Leu-Gly-Leu-A2pr(Dnp)-Ala-Arg-NH2, manufactured by Peptide Institute, Inc.): excitation wavelength at 320 nm, emission wavelength at 405 nm.
# as §1, with “activity. An inhibition rate was obtained based on the enzyme activities in the presence and absence of the test substances, and the 50% inhibitory concentration (IC50) was calculated.” for “activity.”
# [4] = target: T4, Matrix metalloproteinase 14 (MMP-14) (Homo sapiens, UniProt P50281); assay: Enzyme inhibition experiment, MMP-14; format: biochemical; details: 444221 substrate, 37° C., 5 hours
# T4 construct: purchased Calbiochem 475935
# Experimental: Matrix metalloproteinase 14 (MMP-14) (manufactured by Calbiochem, product number: 475935)
# 444221 substrate (DNP-Pro-Cha-Gly-Cys(Me)-His-Ala-Lys(Nma)-NH2, custom synthesis): excitation wavelength at 355 nm, emission wavelength at 460 nm
# as §1, with “activity. An inhibition rate was obtained based on the enzyme activities in the presence and absence of the test substances, and the 50% inhibitory concentration (IC50) was calculated.” for “activity.”
# [5] = target: T5, Matrix metalloproteinase 3 (MMP-3) (Homo sapiens, UniProt P08254); assay: Enzyme inhibition experiment, MMP-3; format: biochemical; details: 3168 substrate, 37° C., 4 hours
# T5 construct: purchased Calbiochem 444217
# T5 sequence (P08254 100-272 limits assumed): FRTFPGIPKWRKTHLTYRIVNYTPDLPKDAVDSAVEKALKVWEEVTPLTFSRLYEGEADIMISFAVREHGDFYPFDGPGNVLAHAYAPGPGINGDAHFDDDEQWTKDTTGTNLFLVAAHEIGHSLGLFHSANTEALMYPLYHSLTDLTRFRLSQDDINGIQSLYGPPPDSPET
# Experimental: Matrix metalloproteinase 3 (MMP-3) (manufactured by Calbiochem, product number: 444217)
# as §3
# as §1, with “activity. An inhibition rate was obtained based on the enzyme activities in the presence and absence of the test substances, and the 50% inhibitory concentration (IC50) was calculated.” for “activity.”
# [6] = target: T6, A disintegrin and metalloproteinase 10 (ADAM10) (Homo sapiens, UniProt O14672); assay: Enzyme inhibition experiment, ADAM10; format: biochemical; details: TACE substrate, 25° C., 5 hours
# T6 construct: purchased Funakoshi Co., Ltd. 936-AD-020
# T6 sequence (O14672 214-672 limits assumed): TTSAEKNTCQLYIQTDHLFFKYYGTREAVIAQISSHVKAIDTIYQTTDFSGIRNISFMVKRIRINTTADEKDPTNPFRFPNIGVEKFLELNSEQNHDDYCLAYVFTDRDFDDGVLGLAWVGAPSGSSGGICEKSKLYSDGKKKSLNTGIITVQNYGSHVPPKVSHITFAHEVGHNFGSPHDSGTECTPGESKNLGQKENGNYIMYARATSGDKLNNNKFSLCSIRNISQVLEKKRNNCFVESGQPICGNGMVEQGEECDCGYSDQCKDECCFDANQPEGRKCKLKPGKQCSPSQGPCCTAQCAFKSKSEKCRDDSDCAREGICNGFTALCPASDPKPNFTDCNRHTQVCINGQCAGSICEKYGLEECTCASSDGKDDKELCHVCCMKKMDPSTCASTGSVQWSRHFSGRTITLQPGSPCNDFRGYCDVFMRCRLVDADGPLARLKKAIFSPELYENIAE
# Experimental: A disintegrin and metalloproteinase 10 (ADAM10) (manufactured by Funakoshi Co., Ltd., product code: 936-AD-020) and
# as §2
# as §1, with “activity. An inhibition rate was obtained based on the enzyme activities in the presence and absence of the test substances, and the 50% inhibitory concentration (IC50) was calculated.” for “activity.”
structure (smiles),measurement,setting,value
"CNC(=O)[C@H](Cc1c[nH]c2ccccc12)NC(=O)[C@@H](CC(=O)NO)CC(C)C [GM6001, reference compound]",cytotoxicity,"[1]; Test Example 5, 50 μM, 8-day addition",had cytotoxicity
same,number of platelets obtained,"[1]; Test Example 5, 8-day addition, 50 μM GM6001 vs 5 μM S-45282",fewer platelets than 5 μM S-45282
same,inhibition of ADAM17-mediated GPIbα shedding (CD42b(+) percentage),"[1]; Test Example 5, added for 2 days or 8 days, GM6001 50 μM, S-45282 5 μM or 50 μM",inhibit ADAM17-mediated GPIbα shedding
same,number of platelets obtained,"[1]; Test Example 5, added for 2 days, 50 μM GM6001, 5 μM S-45282",approximately the same
same,inhibition of ADAM17-mediated GPIbα shedding,"[1]; Test Example 6, 8 days, S-45457 5 μM or 50 μM, GM6001 50 μM",inhibits ADAM17-mediated GPIbα shedding
same,IC50,[2],0.26 nM
same,IC50,ADAM17,310 nM
same,inhibitory activity on ADAM17 enzyme (in words),ADAM17,weak
same,specificity to ADAM17 in comparison with metalloproteinases other than ADAM17,ADAM17; from Table 3,non-specifically and strongly inhibited metalloproteinases
same,IC50,[3],3 nM
same,IC50,[4],1.6 nM
same,IC50,[5],32 nM
same,IC50 ADAM10,[6],410 nM
